Measured values: patent US9073936B2, “Organic compounds” (INTRA-CELLULAR THERAPIES, INC., priority 2013, dated 2015)

Legend:
PDE1 = PDE1 inhibition in vitro, IMAP phosphodiesterase assay; type: biochemical; conditions: cGMP-fluorescein substrate, read-out: IC50 (PDE1 inhibitory activity)
Source text: (§1) Phosphodiesterase 1 (PDE1) is a calcium/calmodulin dependent phosphodiesterase enzyme that converts cyclic guanosine monophosphate (cGMP) to 5′-guanosine monophosphate (5′-GMP). PDE1 can also convert a modified cGMP substrate, such as the fluorescent molecule cGMP-fluorescein, to the corresponding GMP-fluorescein. The generation of GMP-fluorescein from cGMP-fluorescein can be quantitated, using, for example, the IMAP (Molecular Devices, Sunnyvale, Calif.) immobilized-metal affinity particle reagent.
(§2) Briefly, the IMAP reagent binds with high affinity to the free 5′-phosphate that is found in GMP-fluorescein and not in cGMP-fluorescein. The resulting GMP-fluorescein-IMAP complex is large relative to cGMP-fluorescein. Small fluorophores that are bound up in a large, slowly tumbling, complex can be distinguished from unbound fluorophores, because the photons emitted as they fluoresce retain the same polarity as the photons used to excite the fluorescence.
(§3) In the phosphodiesterase assay, cGMP-fluorescein, which cannot be bound to IMAP, and therefore retains little fluorescence polarization, is converted to GMP-fluorescein, which, when bound to IMAP, yields a large increase in fluorescence polarization (Δmp). Inhibition of phosphodiesterase, therefore, is detected as a decrease in Δmp.
Materials: All chemicals are available from Sigma-Aldrich (St. Louis, Mo.) except for IMAP reagents (reaction buffer, binding buffer, FL-GMP and IMAP beads), which are available from Molecular Devices (Sunnyvale, Calif.).
Assay: The following phosphodiesterase enzymes may be used: 3′,5′-cyclic-nucleotide-specific bovine brain phosphodiesterase (Sigma, St. Louis, Mo.) and recombinant full length human PDE1A and PDE1B (r-hPDE1A and r-hPDE1B, respectively) which may be produced e.g., in HEK or SF9 cells by one skilled in the art. The PDE1 enzyme is reconstituted with 50% glycerol to 2.5 U/ml. One unit of enzyme will hydrolyze 1.0 μmole of 3′,5′-cAMP to 5′-AMP per min at pH 7.5 at 30° C. […] 99 μl of diluted enzyme solution is added into each well in a flat bottom 96-well polystyrene plate to which 1 μl of test compound dissolved in 100% DMSO is added. The test compounds are mixed and pre-incubated with the enzyme for 10 min at room temperature.
(§4) The plate is incubated at room temperature for 1 hour to allow IMAP binding to proceed to completion, and then placed in an Envision multimode microplate reader (PerkinElmer, Shelton, Conn.) to measure the fluorescence polarization (Δmp).
(§5) A decrease in GMP concentration, measured as decreased Δmp, is indicative of inhibition of PDE activity.

[1] = target: recombinant full length human PDE1A (r-hPDE1A) (Homo sapiens (Human), UniProt P54750); assay: PDE1 inhibition in vitro, IMAP phosphodiesterase assay (r-hPDE1A); type: biochemical
Source text: as §1, §2, §3
(§6) Materials: All chemicals are available from Sigma-Aldrich (St. Louis, Mo.) except for IMAP reagents (reaction buffer, binding buffer, FL-GMP and IMAP beads), which are available from Molecular Devices (Sunnyvale, Calif.). […]
as §4, with “The reaction is incubated in dark at room temperature for 15 min. […] The” for “The”
as §5

[2] = target: recombinant full length human PDE1B (r-hPDE1B) (Homo sapiens (Human), UniProt Q01064); assay: PDE1 inhibition in vitro, IMAP phosphodiesterase assay (r-hPDE1B); type: biochemical
Source text: as §1, §2, §3, §6
as §4, with “The reaction is incubated in dark at room temperature for 15 min. […] The” for “The”
as §5

[3] = Metabolism rates in human liver microsomes (stability); type: in vitro ADME; conditions: pooled human liver microsomes, pH 7.5, 0.5 mg/ml protein, 1 μM test compound, NADPH, 37° C., read-out: T1/2 in human liver microsomes
Experimental: Pooled human liver microsomes (final protein concentration 0.5 mg/ml) are incubated with test compound (final concentration 1 μM) in the presence of a NADPH regenerating system. The final buffer composition is: 1 mM EDTA, 100 mM potassium phosphate pH 7.5. The reactions are initiated by addition of the cofactor NADPH, and terminated after a 0, 15, 30, 45 and 60 minute incubation at 37° C. by addition of cold acetonitrile containing the internal analysis standard. After centrifuging at 4000 rpm for 20 minutes at 4° C., the supernatant are transferred for analysis using HPLC/MS/MS to measure the disappearance of the test compound. The percentage of the test compound remaining over time is calculated relative to the zero time point. The intrinsic clearance rates were calculated based on percentage of compound remaining at the 15-60 min. time points.

rats = assay: Novel Object Recognition assay; type: in vivo; conditions: rat, PO, dosed 2 hours before T1, 24 h interval
Source text: To measure the cognition-enhancing effects of the compounds of the invention, the candidate compounds may be evaluated in a Novel Object Recognition (NOR) assay. This assay protocol is described in detail in Ennaceur et al., Behav. Brain Res. (1988) 31:47-59 and Prickaerts et al., Eur. J. Pharmacol. (1997) 337:125-136, the contents of each of which are incorporated by reference in their entirety. In this protocol, the rats are introduced to a chamber at time T1 and allowed to interrogate two identical “familiar objects” for six minutes. Twenty-four hours later, they are re-introduced to this chamber, where one of the familiar objects has been replaced with a novel object. The “discrimination index”, a measure of the time spent in close proximity to the novel over the familiar object, may then be measured. Since rodents will forget the original experiment at T1 within 4 hours, this test with a 24 h interval is a measure of strong cognitive enhancement.
This assay protocol can be modified in order to evaluate different phases of memory. There are three general phases of memory, namely, acquisition, consolidation and retrieval. In this modified protocol, the rats may be dosed with the candidate compound two hours before T1 and tested 24 h later without additional dosing. This is a test of the acquisition process. […]

C57BL/6 mice = assay: Haloperidol induced catalepsy model (bar grip test); type: in vivo, mouse; conditions: haloperidol 3 mg/Kg PO, step down latency
Source text: To evaluate the potential beneficial effects to motor defects present in schizophrenics treated with typical and atypical antipsychotic agents and in Parkinson's disease patients, the compounds of the invention may be tested in a reversal of catalepsy model in which motor freezing, or catalepsy, is induced by potent dopamine D2 receptor antagonists such as haloperidol or risperidone. The method uses the “bar grip test”, in which the front paws of the mouse are placed so as to grip a 3 mm-diameter, suspended wooden bar. A “step down latency” is measured by recording the time until the mouse removes its paws from the wooden bar to the floor surface. Catalepsy is a freezing of the musculature that prevents the mouse from moving off the bar. […]
A catalepsy score is recorded for each mouse at 2, 3, 4, and 6 hours after administration of drugs. […] The latency until the mouse steps both paws down from the bar to the floor surface (i.e., step down latency) is recorded up to 120 sec. […] If none of the 10 attempts are beyond 10 sec, the longest duration recorded is used as the catalepsy score. Otherwise, the initial cataleptic duration (>10 sec) is recorded during the 120 sec testing time. Mean step down latency is calculated for each treatment group.

Compound	IC50 (PDE1) [nM]	Ki [1] [nM]	Ki [2] [nM]	half-life at 1 μM [3] [h]	minimal effective dose, Novel Object Recognition (rats) [mg/kg]	minimal effective dose, catalepsy model (C57BL/6 mice) [mg/kg]
CC(O)c1ccc(Cn2nc3c(c2Nc2ccc(F)cc2)C(=O)N(C)C2=NC(C)(C)CN23)cc1 (stereo not drawn) [Example 2, 7,8-Dihydro-2-(4-(1-hydroxyethyl)benzyl)-3-(4-fluorophenylamino)-5,7,7-trimethyl-[2H]-imidazo-[1,2-a]pyrazolo[4,3-e]pyrimidin-4(5H)-one]	≤ 5	0.5	4			
CC(=O)c1ccc(Cn2nc3c(c2Nc2ccc(F)c(F)c2)C(=O)N(C)C2=NC(C)(C)CN23)cc1 [Example 3, 7,8-Dihydro-2-(4-acetylbenzyl)-3-(3,4-difluorophenylamino)-5,7,7-trimethyl-[2H]-imidazo-[1,2-a]pyrazolo[4,3-e]pyrimidin-4(5H)-one]	≤ 5	0.3	4	1.3		
CC(=O)c1ccc(Cn2nc3c(c2Nc2ccc(F)c(C)c2)C(=O)N(C)C2=NC(C)(C)CN23)cc1 [Example 4, 7,8-Dihydro-2-(4-acetylbenzyl)-3-(4-fluoro-3-methylphenylamino)-5,7,7-trimethyl-[2H]-imidazo-[1,2-a]pyrazolo[4,3-e]pyrimidin-4(5H)-one]	≤ 5	0.1	0.4	1.12		
CC(=O)c1ccc(Cn2nc3c(c2Nc2ccc(F)cc2)C(=O)N(C)C2=NC(C)(C)CN23)cc1 [Example 1, 7,8-Dihydro-2-(4-acetylbenzyl)-3-(4-fluorophenylamino)-5,7,7-trimethyl-[2H]-imidazo-[1,2-a]pyrazolo[4,3-e]pyrimidin-4(5H)-one]	≤ 5			2.85	0.1	0.1
